# Test results reported in PubChem BioAssay AID1963835 (Molecular Pharmacology Branch, DTP, NCI, 2024).
# System: 699152-130-R-J1-PDC complex spheroid viability
# Assay: Anticancer human tumor 699152-130-R-J1-PDC patient-derived pancreatic carcinoma cell line growth inhibition [POLQ]
# Details: for IC50: curve of first compound; for viability, T/C: stronger effect = lower value
# Experimental: Multicellular complex tumor spheroid response to Polymerase (POL) inhibitors (novobiocin, ART-558, RP6685) in combination with a variety of drugs and investigational agents in selected tumor cell lines
# The POL inhibitors (novobiocin, ART-558, and RP6685) were evaluated both individually and in combination with standard of care and investigational anticancer small molecules within a complex spheroid model of solid tumors. . Complex spheroids include a stromal component modeled by human endothelial cells (HUVEC) and fibroblasts modeled by human mesenchymal stem cells (MSCs). The concentration ranges selected for each drug and investigational agent were based upon clinically achievable concentrations if the clinical Cmax of the agent was known.
# Compounds. The drugs and investigational agents: novobiocin (NSC847541), ART-558 (NSC835418), RP-6685 (NSC848927), peposertib (NSC802822), ceralasertib (NSC780249), elimusertib (NSC800525), camonsertib (NSC841442), AZD-1390 (NSC803789), olaparib (NSC753686), talazoparib (NSC767125), rucaparib (NSC756644), sotorasib (NSC818433), MRTX-1133 (NSC836407), SN-38 (NSC673596), topotecan (NSC609699), epotoside (NSC141540), doxorubicin (NSC123127), gemcitabine (NSC613327), 5-fluorouracil (NSC19893), paclitaxel (NSC125973), vemurafenib (NSC761431), MSA-2 (NSC828583), SN-011 (NSC837082), adavosertib (NSC754352), prexasertib (NSC758257), carboplatin (NSC241240) and oxaliplatin (NSC266046), were obtained from the National Cancer Institute (NCI) Developmental Therapeutics Program Chemical Repository (21). The FDA-approved anticancer drug set is available from the Developmental Therapeutics Program at https://dtp.cancer.gov/organization/dscb/obtaining/. […] The stock solutions were prepared in dimethyl sulfoxide (DMSO, Sigma-Aldrich, St. Louis, MO, cat. D2650), except for the platinum compounds which were prepared in saline (Quality Biological, Gaithersburg, MD, cat. 114-055-101), at 800-fold the tested concentration and stored at -70 degrees C prior to their use. All drugs and investigational agents were tested over a range starting from a high concentration at or near the clinical Cmax and decreasing in half-log increments. If the clinical Cmax for an agent had not been determined, the highest concentration tested was 10 microM, except for SN-38, which was tested at a high concentration of 1 microM.
# Cell Culture. All cells were maintained in an incubator at 37 degrees C and 5% CO2 with 95% humidity. The PDC lines were cultured according to standard operating procedures established by the NCI PDMR (https://pdmr.cancer.gov). Table 3 of the manuscript, lists the cell lines along with the number of the three cell types plated to form the mct-spheroids and media for tumor cell growth. After thawing, all PDC lines, except 997537-175-T-J1-PDC and 415267-285-R-J2-PDC, were cultured in Matrigel-coated flasks prepared with a working solution of 1X Ham's F-12 nutrient mix, without supplementation (Thermo Fisher Scientific, cat. 11765054), 100 U/mL penicillin-streptomycin (Thermo Fisher Scientific, cat. 15140122), and 2.5% Matrigel (Corning Inc., Corning, NY, cat. 354248) for the first three passages. The two PDC lines 997537-175-T-J1-PDC and 415267-285-R-J2-PDC were cultured on uncoated flasks. The 857933-349-R-J2-PDC line was cultured in 6C/Colon 1B media containing advanced DMEM/F-12 (Thermo Fisher Scientific, cat. 12634028), 10 mM HEPES (Thermo Fisher Scientific, cat. 15630080), 1X GlutaMAX supplement (Thermo Fisher Scientific, cat. 35050061), 0.1 mg/mL primocin (InvivoGen, San Diego, CA, cat. ant-pm-2), 10% defined fetal bovine serum, heat inactivated (HyClone Laboratories Inc., Logan, UT, cat. SH30070.03HI), 50% L-WRN conditioned media (ATCC, cat. CRL-3276), 1.25 mM N-Acetyl-L-cysteine (Sigma-Aldrich, cat. A9165), 10 mM nicotinamide (Sigma-Aldrich, cat. N0636), 1X B-27 supplement (Thermo Fisher Scientific, cat. 17504044), 1X N-2 supplement (Thermo Fisher Scientific, cat. […]
# [1] = second compound 0.0316 µM, first compound 0.0316 µM
# [2] = second compound 0.0316 µM, first compound 0.1 µM
# [3] = second compound 0.0316 µM, first compound 0.316 µM
# [4] = second compound 0.0316 µM, first compound 1 µM
# [5] = second compound 0.1 µM, first compound 0.0316 µM
# [6] = second compound 0.1 µM, first compound 0.1 µM
# [7] = second compound 0.1 µM, first compound 0.316 µM
# [8] = second compound 0.1 µM, first compound 1 µM
# [9] = second compound 0.316 µM, first compound 0.0316 µM
# [10] = second compound 0.316 µM, first compound 0.1 µM
# [11] = second compound 0.316 µM, first compound 0.316 µM
# [12] = second compound 0.316 µM, first compound 1 µM
# [13] = second compound 1 µM, first compound 0.0316 µM
# [14] = second compound 1 µM, first compound 0.1 µM
# [15] = second compound 1 µM, first compound 0.316 µM
# [16] = second compound 1 µM, first compound 1 µM
# [17] = second compound 3.16 µM, first compound 0.0316 µM
# [18] = second compound 3.16 µM, first compound 0.1 µM
# [19] = second compound 3.16 µM, first compound 0.316 µM
# [20] = second compound 3.16 µM, first compound 1 µM
# [21] = second compound 10 µM, first compound 0.0316 µM
# [22] = second compound 10 µM, first compound 0.1 µM
# [23] = second compound 10 µM, first compound 0.316 µM
# [24] = second compound 10 µM, first compound 1 µM
# 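Also: spheroids exposed to agents for 7 days before viability reading.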
# 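For viability, T/C in this document: percent of DMSO vehicle control viability so 100% = vehicle and 0% = no viable signal.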
compound,measurement,setting,value
COc1cccc(OCCCN)c1-c1cc(Nc2cnc(C#N)cn2)n[nH]1 + COC1C(OC(N)=O)C(O)C(Oc2ccc3c(O)c(NC(=O)c4ccc(O)c(CC=C(C)C)c4)c(=O)oc3c2C)OC1(C)C,IC50,second compound 0.0316 µM,256 nM
same,IC50,second compound 0.1 µM,524 nM
same,IC50,second compound 0.316 µM,495 nM
same,IC50,second compound 1 µM,297 nM
same,IC50,second compound 3.16 µM,> 1000 nM
same,IC50,second compound 10 µM,> 1000 nM
same,"viability, T/C","second compound 0.0316 µM, first compound 0.00316 µM",92.4%
same,"viability, T/C","second compound 0.0316 µM, first compound 0.01 µM",91.4%
same,"viability, T/C",[1],57.9%
same,"viability, T/C",[2],63%
same,"viability, T/C",[3],49.7%
same,"viability, T/C",[4],43%
same,"viability, T/C","second compound 0.1 µM, first compound 0.00316 µM",96.8%
same,"viability, T/C","second compound 0.1 µM, first compound 0.01 µM",89.2%
same,"viability, T/C",[5],70.3%
same,"viability, T/C",[6],58.1%
same,"viability, T/C",[7],50.8%
same,"viability, T/C",[8],48.6%
same,"viability, T/C","second compound 0.316 µM, first compound 0.00316 µM",107%
same,"viability, T/C","second compound 0.316 µM, first compound 0.01 µM",83.1%
same,"viability, T/C",[9],67.3%
same,"viability, T/C",[10],55.2%
same,"viability, T/C",[11],55%
same,"viability, T/C",[12],46.1%
same,"viability, T/C","second compound 1 µM, first compound 0.00316 µM",93.7%
same,"viability, T/C","second compound 1 µM, first compound 0.01 µM",83.2%
same,"viability, T/C",[13],69.2%
same,"viability, T/C",[14],52.3%
same,"viability, T/C",[15],48.4%
same,"viability, T/C",[16],50.8%
same,"viability, T/C","second compound 3.16 µM, first compound 0.00316 µM",107%
same,"viability, T/C","second compound 3.16 µM, first compound 0.01 µM",78.2%
same,"viability, T/C",[17],60.7%
same,"viability, T/C",[18],54.8%
same,"viability, T/C",[19],57.5%
same,"viability, T/C",[20],48.8%
same,"viability, T/C","second compound 10 µM, first compound 0.00316 µM",94.8%
same,"viability, T/C","second compound 10 µM, first compound 0.01 µM",90.8%
same,"viability, T/C",[21],62.3%
same,"viability, T/C",[22],60.3%
same,"viability, T/C",[23],55%
same,"viability, T/C",[24],46.3%
Nc1ccn(C2OC(CO)C(O)C2(F)F)c(=O)n1 (centres undefined) + COC1C(OC(N)=O)C(O)C(Oc2ccc3c(O)c(NC(=O)c4ccc(O)c(CC=C(C)C)c4)c(=O)oc3c2C)OC1(C)C,IC50,second compound 0.0316 µM,202 nM
same,IC50,second compound 0.1 µM,262 nM
same,IC50,second compound 0.316 µM,376 nM
same,IC50,second compound 1 µM,264 nM
same,IC50,second compound 3.16 µM,475 nM
same,IC50,second compound 10 µM,765 nM
same,"viability, T/C",[1],68.1%
same,"viability, T/C",[2],52.2%
same,"viability, T/C",[3],42.9%
same,"viability, T/C",[4],48.3%
same,"viability, T/C","second compound 0.0316 µM, first compound 3.16 µM",39%
same,"viability, T/C","second compound 0.0316 µM, first compound 10 µM",31.2%
same,"viability, T/C",[5],73.5%
same,"viability, T/C",[6],56.1%
same,"viability, T/C",[7],48.7%
same,"viability, T/C",[8],44.8%
same,"viability, T/C","second compound 0.1 µM, first compound 3.16 µM",35.4%
same,"viability, T/C","second compound 0.1 µM, first compound 10 µM",34.3%
same,"viability, T/C",[9],64.4%
same,"viability, T/C",[10],56.6%
same,"viability, T/C",[11],49.7%
same,"viability, T/C",[12],44.4%
same,"viability, T/C","second compound 0.316 µM, first compound 3.16 µM",46.4%
same,"viability, T/C","second compound 0.316 µM, first compound 10 µM",35.4%
same,"viability, T/C",[13],70%
same,"viability, T/C",[14],51.5%
same,"viability, T/C",[15],53.3%
same,"viability, T/C",[16],45.1%
same,"viability, T/C","second compound 1 µM, first compound 3.16 µM",43.2%
same,"viability, T/C","second compound 1 µM, first compound 10 µM",40.1%
same,"viability, T/C",[17],61.7%
same,"viability, T/C",[18],55.6%
same,"viability, T/C",[19],51.4%
same,"viability, T/C",[20],51.5%
same,"viability, T/C","second compound 3.16 µM, first compound 3.16 µM",37.1%
same,"viability, T/C","second compound 3.16 µM, first compound 10 µM",40.8%
same,"viability, T/C",[21],72.1%
same,"viability, T/C",[22],56.7%
same,"viability, T/C",[23],54.8%
same,"viability, T/C",[24],51.3%
same,"viability, T/C","second compound 10 µM, first compound 3.16 µM",44.1%
same,"viability, T/C","second compound 10 µM, first compound 10 µM",38%
